Results on two molecules are retold here after ChEMBL document CHEMBL4251670, “Cyclopiamines C and D: Epoxide Spiroindolinone Alkaloids from Penicillium sp. CML 3020” (J Nat Prod, 2018).

In one test the test system is MDA-MB-231. The test is described as follows: Cytotoxicity against human MDA-MB-231 cells after 72 hrs by CellTiter-Glo luminescent assay. The conditions noted are these: MDA-MB-231, 72 h. The test is classed as functional, cell-based. In general terms: ATP-based viability assays read luminescence as a measure of living cells.
The subject of the next test is Candida albicans. The test is described as follows: Antifungal activity against Candida albicans MY1055 measured after overnight incubation. Type of test: functional.
A further test deals with MCF7. Put plainly: Cytotoxicity against human MCF7 cells after 72 hrs by CellTiter-Glo luminescent assay. Type of test: functional, cell-based. The conditions noted are these: MCF7, 72 h.
A further test relates to Escherichia coli. The test is described as follows: Antibacterial activity against Escherichia coli MB2884 measured after overnight incubation. The test is classed as functional.
The subject of another test is Pseudomonas aeruginosa. Put plainly: Antibacterial activity against Pseudomonas aeruginosa MB5919 measured after overnight incubation. The test is classed as functional.
For a further test, the system named is EVSA-T. Put plainly: Cytotoxicity against human EVSA-T cells after 72 hrs by CellTiter-Glo luminescent assay. The test is classed as functional, cell-based.
Test [1] is described as follows: Cytotoxicity against human MEC1 cells after 72 hrs by CellTiter-Glo luminescent assay. Type of test: functional, cell-based. The conditions noted are these: MEC1, 72 h.
A further test relates to SW480. The test is described as follows: Cytotoxicity against human SW480 cells after 72 hrs by CellTiter-Glo luminescent assay. The test is classed as functional, cell-based. The conditions noted are these: SW480, 72 h.
Another test has as its system Aspergillus fumigatus. The test is described as follows: Antifungal activity against Aspergillus fumigatus ATCC 46645 measured after overnight incubation. The test is classed as functional.
In the next test the test system is Acinetobacter baumannii. Put plainly: Antibacterial activity against Acinetobacter baumannii MB5973 measured after overnight incubation. Type of test: functional.
The next test has as its system Klebsiella pneumoniae. The test is described as follows: Antibacterial activity against Klebsiella pneumoniae ATCC 700603 measured after overnight incubation. Type of test: functional.
Test [2] can be described thus: Cytotoxicity against human NCH421K cells after 72 hrs by CellTiter-Glo luminescent assay. Type of test: functional, cell-based.
In another test the test system is Staphylococcus aureus. The test is described as follows: Antibacterial activity against methicillin-resistant Staphylococcus aureus MB5393 measured after overnight incubation. The test is classed as functional.

Broadly, the IC50 is the concentration that gives 50% inhibition. In general, MIC refers to the smallest concentration in the dilution series that meets the test's criterion for growth inhibition. Low readings indicate inhibition by little substance, high ones a need for much substance. Regarding `CC1(C)[C@@H](O)C(=O)c2c(O)ccc3c2N1C(=O)[C@@]31C[C@]2([N+](=O)[O-])CN3C[C@@H]4O[C@@H]4[C@@H]3C[C@H]2C1(C)C`, the IC50 (with MDA-MB-231; in the test with MCF7; in the test on EVSA-T; in [1]; with SW480; in test [2]) was > 180 µM throughout. Further, the MIC with Candida albicans, with Escherichia coli, against Pseudomonas aeruginosa, in the test with Aspergillus fumigatus, against Acinetobacter baumannii and against Klebsiella pneumoniae was > 64 µg/mL throughout. In the test on Staphylococcus aureus, the MIC was > 64 µg/mL.
For the molecule `COc1ccc2c3c1C(=O)[C@H](O)C(C)(C)N3C(=O)[C@@]21C[C@]2([N+](=O)[O-])CN3C[C@@H]4O[C@@H]4[C@@H]3C[C@H]2C1(C)C`, the IC50 (in the test on MDA-MB-231; in the test on MCF7; in the test with EVSA-T; in test [1]; with SW480; in [2]) was > 180 µM each time. In addition, the MIC in the test with Candida albicans, against Escherichia coli, in the test on Pseudomonas aeruginosa, in the test with Aspergillus fumigatus, in the test on Acinetobacter baumannii and in the test with Klebsiella pneumoniae was > 64 µg/mL throughout. For the same molecule, the MIC in the test on Staphylococcus aureus is > 64 µg/mL.
